The values that follow come from paper PMC10045904, “Polyphenol Profile of Cistus × incanus L. and Its Relevance to Antioxidant Effect and α-Glucosidase Inhibition” (Antioxidants, 2023).

≈ marks a conversion by molar mass, not a printed value. Where “and” joins values, the source holds several entries; their conditions need not be identical. Identical values can stand only once. Like-named read-outs stand apart in the source and are kept apart here.

Series [1] addresses T1, α-glucosidase from Saccharomyces cerevisiae (Saccharomyces cerevisiae, UniProt P53341).
T1 construct: purchased Sigma-Aldrich (Germany)
In words: α-glucosidase inhibitory assay (p-NPG, 96-well microplate). Format: biochemical. Particulars: pure compound at 500 µg/mL, triplicate. As to the method: Spectrophotometric measurements were conducted using a Multiskan GO Spectrophotometer (Thermo-Fisher Scientific). The %Inhibition was calculated from the formula % inhibition=(AControl− ASample/AControl )×100
The α-glucosidase inhibitory activity was conducted in a 96-well microplate using 4-nitrophenyl-α-D-glucopyranoside (p-NPG), as reported previously. […] […] The microplate with samples and enzyme solution was initially incubated for 5 min at 37 °C. […] The reaction was allowed to run for 10 min and afterward stopped by adding 50 µL of 0.1 M Na2CO3. The absorbance was measured at 405 nm. All of the samples were tested in triplicate.
The readings were reduced by absorbance of the sample blanks measured separately for each extract/polyphenol, which consisted of 50 µL of extract diluted in 150 µL of buffer solution only, while values obtained for uninhibited controls were reduced by absorbance values of the buffer solution (buffer blank). The activity was expressed as %inhibition. The half-maximal inhibitory concentration (IC50) values, defined as concentration of inhibitor necessary to reduce the rate of an enzymatic process by 50%, were calculated as follows: IC50=sample concentration ×50/% inhibition

Series [2] addresses T1, α-glucosidase from Saccharomyces cerevisiae. The experiment in a line: Kinetics of α-glucosidase inhibition (Lineweaver–Burk, varying inhibitor and p-NPG concentrations). It is filed as biochemical. Particulars: for Inhibition Type (mode of α-glucosidase inhibition): Lineweaver–Burk plots, p-NPG 1–20 mM, enzyme 0.25 U/mL. Here is the method:
The readings were reduced by absorbance of the sample blanks measured separately for each extract/polyphenol, which consisted of 50 µL of extract diluted in 150 µL of buffer solution only, while values obtained for uninhibited controls were reduced by absorbance values of the buffer solution (buffer blank). The activity was expressed as %inhibition. The half-maximal inhibitory concentration (IC50) values, defined as concentration of inhibitor necessary to reduce the rate of an enzymatic process by 50%, were calculated as follows: IC50=sample concentration ×50/% inhibition […]
Inhibition modes of α-glucosidase were determined according to Chu et al.. […] After 5 min of preincubation, the addition of the substrate started the reaction, and the changes in absorbance were measured at 30 s intervals. The uninhibited reaction was also run. The reaction was terminated after 10 min, and the absorbance values obtained in the kinetic study were used to create Lineweaver–Burk plots of 1/v against 1/[S].
S3. Ability of α‐glucosidase inhibition by C. incanus
Figure S1. Inhibition of α‐glucosidase by C. incanus extracts at different concentrations.
The absorbance values have been used to determine the changes in Michaelis con‐ stant (Km) and maximum velocity of reaction (Vmax). At first, the change in absorbance over time was converted to absorbance units per minute and then expressed as micromoles of chromogenic product (p‐Np) liberated in the enzymatic reaction in order to determine reaction velocity. The molar extinction coefficient of p‐NP used in the calculation was de‐ termined from its standard curve. The reciprocal of reaction velocity values of each tested compound and extract at different substrate concentrations were then plotted against the reciprocal of substrate concentrations. The intercepts of the created trendlines were uti‐ lized to calculate Km and Vmax values of each enzymatic reaction, and evaluation of altera‐

On the set-up of series [3]: method as in PMID 35458630, PMID 36673365. The settings on record: after consumption of ellagitannin-rich foods; cited from earlier work.
[4] abbreviates: read-out: IC50 [µM] α-glucosidase.
The mark [5] stands for this setting: read-out: IC50 [µg/mL] α-glucosidase (converted).

T1 sequence (P53341 whole entry): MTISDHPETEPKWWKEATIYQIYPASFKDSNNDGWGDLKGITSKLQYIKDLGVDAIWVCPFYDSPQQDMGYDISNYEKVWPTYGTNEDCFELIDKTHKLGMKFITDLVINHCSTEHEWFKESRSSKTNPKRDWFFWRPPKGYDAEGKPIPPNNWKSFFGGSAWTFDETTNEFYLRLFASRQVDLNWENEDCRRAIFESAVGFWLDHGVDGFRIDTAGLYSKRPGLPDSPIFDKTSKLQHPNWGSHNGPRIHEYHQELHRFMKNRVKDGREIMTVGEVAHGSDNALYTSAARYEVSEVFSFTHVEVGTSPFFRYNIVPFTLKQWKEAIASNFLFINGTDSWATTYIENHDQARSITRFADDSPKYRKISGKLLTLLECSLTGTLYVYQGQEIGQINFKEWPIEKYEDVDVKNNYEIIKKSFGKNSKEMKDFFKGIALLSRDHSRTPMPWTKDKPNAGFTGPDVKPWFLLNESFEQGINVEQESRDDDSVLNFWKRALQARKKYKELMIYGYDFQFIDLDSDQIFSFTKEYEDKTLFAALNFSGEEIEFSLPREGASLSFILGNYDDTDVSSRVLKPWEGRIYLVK

As usually defined, the inhibition is the share of the control response that was lost under treatment. `O=C(/C=C/c1ccc(O)cc1)OC[C@H]1O[C@@H](Oc2c(-c3ccc(O)cc3)oc3cc(O)cc(O)c3c2=O)[C@H](O)[C@@H](O)[C@@H]1O` [Tiliroside, kaempferol-3-O-β-(6″-O-p-coumaroyl)glucoside]: in series [1], the inhibition at 500 µg/mL is over 70% and the α-glucosidase %inhibition amounted to 73.6%. Further, the “Inhibition Type (mode of α-glucosidase inhibition)” value (shortened to “Inhibition Type”) in series [2] is “mixed”. The IC50 in series [2] (setting [4]) was found to be 283 µM. The IC50 in series [2] (setting [5]) was 283 µM.
`O=c1c(O[C@@H]2O[C@H](CO)[C@H](O)[C@H](O)[C@H]2O)c(-c2ccc(O)c(O)c2)oc2cc(O)cc(O)c12` [hyperoside, quercetin-3-O-β-galactoside]: in series [1], the inhibition at 500 µg/mL is 26%.
Turning to `O=C1OC[C@H]2OC(O)[C@H](O)[C@@H](O)[C@@H]2OC(=O)c2cc(O)c(O)c(O)c2-c2c(O)c(O)c3oc(=O)c4c(c(O)c(O)c5oc(=O)c2c3c54)-c2c1cc(O)c(O)c2O` (mixture of isomers) [punicalin], the “absorption into the bloodstream” value in series [3] is “not absorbed into the bloodstream”.
Cistusin yielded a α-glucosidase %inhibition in series [1] of over 70%. In addition, in series [2], the “IC50 [µg/mL] α-glucosidase” value worked out at 0.83 µg/mL and the “Inhibition Type” value is reported as “mixed”. Further, the IC50 in series [2] (listed as cistusin, read-out: IC50 [µM] α-glucosidase) worked out at 0.7 µM. The IC50 in series [2] (setting [4]) came to 0.66 µM.
As for `O=c1c(O)c(-c2ccc(O)cc2)oc2cc(O)cc(O)c12` [kaempferol], the inhibition at 500 µg/mL in series [1] turned out to be 17.6%.
`O=C(OC[C@H]1OC(O)[C@@H]2OC(=O)c3cc(O)c(O)c(O)c3-c3c(cc(O)c(O)c3O)C(=O)O[C@H]2[C@@H]1OC(=O)c1cc(O)c(O)c(O)c1-c1c(O)c(O)c2oc(=O)c3cc(O)c(O)c4oc(=O)c1c2c43)c1cc(O)c(O)c(O)c1` (some centres unmarked) [Terflavin A, terflavin A] showed a α-glucosidase %inhibition in series [1] of over 70%. Besides, in series [2], the “IC50 [µg/mL] α-glucosidase” value turned out to be 1.19 µg/mL (≈ 1.1 µM) and the “Inhibition Type” value was “mixed”. For the same molecule, the IC50 in series [2] (setting [4]) amounted to 1.1 µM.
`O=C(O)c1cc(O)c(O)c(O)c1` [Gallic acid, gallic acid] had an inhibition at 500 µg/mL in series [1] of over 70%. The molecule further gave a α-glucosidase %inhibition in series [1] of 82.8%. Moreover, the “Inhibition Type” value in series [2] was “mixed”. For the same molecule, the IC50 is 686 µM in series [2] (setting [4]); 688 µM and 686 µM in series [2] (setting [5]).
As to `O=c1oc2c(O)c(O)cc3c(=O)oc4c(O)c(O)cc1c4c23` [Ellagic acid, ellagic acid], in series [1], the inhibition at 500 µg/mL is over 70%. Moreover, the α-glucosidase %inhibition in series [1] was determined as 81.9%. The “Inhibition Type” value in series [2] is “mixed”. Besides, the IC50 in series [2] (setting [4]) was 11 µM and 10.8 µM; in series [2] (setting [5]), 10.8 µM.
In the case of `O=c1c(O)c(-c2ccc(O)c(O)c2)oc2cc(O)cc(O)c12` [quercetin], the inhibition at 500 µg/mL in series [1] lay within 30 to 40%.
As for `O=C1O[C@H]2[C@@H]3OC(=O)c4cc(O)c(O)c(O)c4-c4c(O)c(O)c5oc(=O)c6c(c(O)c(O)c7oc(=O)c4c5c76)-c4c(cc(O)c(O)c4O)C(=O)OC[C@H]3OC(O)[C@@H]2OC(=O)c2cc(O)c(O)c(O)c2-c2c1cc(O)c(O)c2O` (mixture of isomers) [Punicalagin, punicalagin], the inhibition at 500 µg/mL in series [1] is over 70%. In addition, in series [2], the “Inhibition Type” value is “competitive”. Besides, the IC50 is 1.1 µM and 1.14 µM in series [2] (setting [4]); 1.13 µM in series [2] (setting [5]). For the same molecule, the “absorption into the bloodstream” value in series [3] was “not absorbed into the bloodstream”.
The molecule `C[C@H]1O[C@H](O[C@H]2[C@H](O)[C@@H](O)[C@@H](O[C@H]3[C@H](O)[C@@H](O)C(O)O[C@@H]3CO)O[C@@H]2CO)[C@H](O)[C@@H](O)[C@@H]1N[C@H]1C=C(CO)[C@@H](O)[C@H](O)[C@H]1O` (some centres unmarked) [Acarbose, acarbose, reference compound] displayed an inhibition at 500 µg/mL in series [1] of 13.7%. The “Inhibition Type” value in series [2] is given as “competitive”.
